For two molecules, IC50 and Tm results are on record in article doi:10.1101/2025.10.16.682859v2 (biorxiv, 2025).

SMILES strings stand for the structures.

Assay [1] has as its target T1, human asparagine synthetase (ASNS) (Homo sapiens, UniProt P08243).
T1 sequence (P08243 2-561): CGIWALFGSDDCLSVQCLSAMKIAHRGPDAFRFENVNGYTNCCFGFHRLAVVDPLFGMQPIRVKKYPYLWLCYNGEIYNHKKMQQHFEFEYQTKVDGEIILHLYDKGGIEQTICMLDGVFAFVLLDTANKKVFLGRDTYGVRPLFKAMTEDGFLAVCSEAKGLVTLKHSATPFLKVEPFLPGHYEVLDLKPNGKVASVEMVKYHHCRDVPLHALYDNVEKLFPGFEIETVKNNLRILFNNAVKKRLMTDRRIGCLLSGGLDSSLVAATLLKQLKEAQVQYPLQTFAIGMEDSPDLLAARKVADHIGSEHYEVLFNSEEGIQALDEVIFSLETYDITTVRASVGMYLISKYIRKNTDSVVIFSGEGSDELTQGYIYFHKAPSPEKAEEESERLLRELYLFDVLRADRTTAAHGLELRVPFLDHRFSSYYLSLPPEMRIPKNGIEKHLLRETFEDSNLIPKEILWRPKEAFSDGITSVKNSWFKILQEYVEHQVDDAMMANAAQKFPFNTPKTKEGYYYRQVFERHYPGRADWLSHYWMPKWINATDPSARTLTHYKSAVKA
Put plainly: HPLC end-point assay of L-asparagine formation. Type of assay: biochemical.

Assay [2] deals with T2, ASNS (endogenous, HEK-293A cells) (Homo sapiens, UniProt P08243).
T2 sequence (P08243 2-561): T1 sequence (P08243 2-561)
The assay is described as follows: cellular thermal shift, immunoblot. Conditions: cells treated with 50 nM for 1 h, lysate heated 25-90 °C. Type of assay: cell-based.

Assay [3] deals with T3, human argininosuccinate synthetase (ASS1) (Homo sapiens, UniProt P00966).
T3 sequence (P00966 1-412): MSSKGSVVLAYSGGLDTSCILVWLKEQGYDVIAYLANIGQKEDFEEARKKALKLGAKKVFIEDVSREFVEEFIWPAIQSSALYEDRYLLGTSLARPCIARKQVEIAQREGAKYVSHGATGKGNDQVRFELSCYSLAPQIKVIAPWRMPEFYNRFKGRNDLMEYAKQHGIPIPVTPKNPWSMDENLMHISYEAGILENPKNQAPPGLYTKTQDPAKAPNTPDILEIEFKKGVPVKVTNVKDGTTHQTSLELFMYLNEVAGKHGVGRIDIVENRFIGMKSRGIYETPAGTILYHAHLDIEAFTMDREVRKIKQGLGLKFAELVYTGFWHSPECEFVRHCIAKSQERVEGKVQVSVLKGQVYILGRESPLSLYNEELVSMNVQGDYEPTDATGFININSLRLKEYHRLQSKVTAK
Put plainly: differential scanning fluorimetry. The format is binding. Conditions: 5 mM ATP, 10 mM MgCl2, pH 8.0. On the technique in general: In DSF a fluorescence change marks the thermal transition of the protein.

For the molecule `CC[C@H](N)C(=O)N1C[C@@H](c2ccc(F)cc2)[C@H](O)[C@@H]1C(=O)NC(c1ccccc1)c1ccccc1` [compound 17, ASX-173], inhibition in assay [1] was half-maximal at 500 ± 200 nM (IC50). In addition, in assay [2], the Tm is 45 to 54 °C.
Regarding `Nc1ncnc2c1ncn2[C@@H]1O[C@H](COP(=O)(O)OP(=O)(O)OP(=O)(O)O)[C@@H](O)[C@H]1O` [ATP], the Tm in assay [3] fell in the range of 47 to 52 °C.

As a reminder, the IC50 is the point on the concentration scale where inhibition reaches its midpoint. A higher IC50 goes with lower potency.
